Reference: patent US20240270821A1, “GIP/GLP1/GCG TRI-RECEPTOR AGONISTS AND USES THEREOF” (priority 2023, published 2024)
pEC50: −log10 of the molar value. Read-outs that look alike come from different tables or passages of the source. Starred links: 1 amine or outer side, 2 acyl side, 3 side chain; linkers in the order of their positions; H or OH if unused. Non-standard residues stand in square brackets, D forms with d. Groups on a side chain read outwards from the residue. *: point of attachment. C18 diacid = O=C(O)CCCCCCCCCCCCCCCCC(=O)*; γGlu = O=C(O)[C@H](CCC(=O)[*:2])N[*:1]; αMe4Pal = C[C@](N)(Cc1ccncc1)C(=O)O; αMeY = C[C@](N)(Cc1ccc(O)cc1)C(=O)O; Hyp = O=C(O)[C@@H]1C[C@@H](O)CN1; 4Pal = N[C@@H](Cc1ccncc1)C(=O)O; αMeL = CC(C)C[C@](C)(N)C(=O)O; Orn = NCCC[C@H](N)C(=O)O; AEEA = NCCOCCOCC(=O)O; Aib = CC(C)(N)C(=O)O

How the values were obtained:
Type in all cases: cell-based
hGLP-1R [1] = molecular target: T1, hGLP-1R (Homo sapiens, UniProt P43220); test: Functional cAMP activity in the presence of 1% HSA; conditions: read-out: cAMP Rel EC50, hGLP-1R
T1 sequence (P43220 24-463): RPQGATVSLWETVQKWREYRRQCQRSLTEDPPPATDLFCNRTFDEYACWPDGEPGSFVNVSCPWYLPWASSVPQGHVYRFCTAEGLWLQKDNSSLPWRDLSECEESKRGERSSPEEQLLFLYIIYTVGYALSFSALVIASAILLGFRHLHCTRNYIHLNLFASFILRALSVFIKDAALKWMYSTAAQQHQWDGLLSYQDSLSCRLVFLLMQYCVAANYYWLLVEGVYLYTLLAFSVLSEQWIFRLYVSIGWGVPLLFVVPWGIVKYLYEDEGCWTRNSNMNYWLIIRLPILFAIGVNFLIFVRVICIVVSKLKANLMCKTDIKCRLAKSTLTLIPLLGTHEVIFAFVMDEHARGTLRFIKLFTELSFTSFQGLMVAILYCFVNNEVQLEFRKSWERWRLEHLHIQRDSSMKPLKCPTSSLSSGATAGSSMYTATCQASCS

hGLP-1R [2] = molecular target: T1, hGLP-1R; test: Functional cAMP activation in the presence of 0.1% casein (no HSA); conditions: read-out: Relative cAMP EC50, hGLP-1R;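 for Relative cAMP EC50, hGIPR: intracellular cAMP rise after 30 min at 37 °C read by HTRF against a standard curve, scaled between buffer alone (0%) and top control ligand concentration (100%), four-parameter fit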;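 for Relative cAMP EC50, hGLP-1R: intracellular cAMP rise after 30 min at 37 °C read by HTRF, normalized between buffer only (0%) and maximal control ligand (100%), four-parameter variable-slope fit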
hGIPR [3] = molecular target: T2, hGIPR (Homo sapiens, UniProt P48546); test: as above; conditions: read-out: Relative cAMP EC50, hGIPR;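 note: intracellular cAMP rise after 30 min at 37 °C read by HTRF against a standard curve, scaled between buffer alone (0%) and top control ligand concentration (100%), four-parameter fit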
T2 sequence (P48546 22-466): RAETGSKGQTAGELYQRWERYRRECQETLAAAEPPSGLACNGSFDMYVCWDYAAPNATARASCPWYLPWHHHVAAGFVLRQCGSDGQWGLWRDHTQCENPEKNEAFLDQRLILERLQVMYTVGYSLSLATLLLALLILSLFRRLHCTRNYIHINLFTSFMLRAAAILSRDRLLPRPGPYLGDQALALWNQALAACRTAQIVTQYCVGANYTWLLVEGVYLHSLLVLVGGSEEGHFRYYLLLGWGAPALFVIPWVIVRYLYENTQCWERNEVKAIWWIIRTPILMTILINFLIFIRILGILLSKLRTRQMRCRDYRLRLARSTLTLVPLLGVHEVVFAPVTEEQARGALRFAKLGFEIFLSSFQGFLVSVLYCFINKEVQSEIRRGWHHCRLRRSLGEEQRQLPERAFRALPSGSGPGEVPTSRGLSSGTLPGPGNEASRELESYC

human GcgR = human GcgR (Homo sapiens, UniProt P47871); test: Functional cAMP activity in the presence of 1% HSA; conditions: read-out: cAMP Rel EC50, hGcgR
Sequence of human GcgR (P47871 26-477): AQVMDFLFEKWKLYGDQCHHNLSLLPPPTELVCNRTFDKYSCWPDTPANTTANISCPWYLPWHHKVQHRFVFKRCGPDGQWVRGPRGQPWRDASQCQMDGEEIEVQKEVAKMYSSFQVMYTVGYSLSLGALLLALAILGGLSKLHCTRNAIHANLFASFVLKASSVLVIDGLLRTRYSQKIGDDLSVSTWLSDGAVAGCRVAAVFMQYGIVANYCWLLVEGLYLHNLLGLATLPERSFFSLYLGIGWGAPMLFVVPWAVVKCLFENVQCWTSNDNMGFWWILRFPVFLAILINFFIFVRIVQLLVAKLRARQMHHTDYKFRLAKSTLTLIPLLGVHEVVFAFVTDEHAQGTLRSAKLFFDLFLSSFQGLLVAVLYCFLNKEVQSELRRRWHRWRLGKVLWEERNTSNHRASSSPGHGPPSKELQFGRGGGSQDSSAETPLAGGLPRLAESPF

hGcgR = hGcgR (Homo sapiens, UniProt P47871); test: Functional cAMP activation in the presence of 0.1% casein (no HSA); conditions: read-out: Relative cAMP EC50, hGcgR;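 note: intracellular cAMP rise after 30 min at 37 °C, read by HTRF against a cAMP standard curve, scaled from buffer only (0%) to maximal control ligand response (100%)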
Sequence of hGcgR (P47871 26-477): as above

hGIPR [4] = molecular target: T2, hGIPR; test: Functional cAMP activity in the presence of 1% HSA; conditions: read-out: cAMP Rel EC50, hGIPR
[5] = in the presence of 0.1% casein (no HSA), geometric mean

Row | Substance | pEC50 (hGLP-1R [1]) | pEC50 (hGLP-1R [2]; [5]) | pEC50 (hGIPR [3]; [5]) | pEC50 (human GcgR) | pEC50 (hGcgR; [5]) | pEC50 (hGIPR [4]) | pEC50 (hGLP-1R [2]) | pEC50 (hGIPR [3]) | pEC50 (hGcgR)
1 | H-Y[Aib]QGTFTSDFS[Orn][αMeL]LDKK([AEEA-γGlu-C18 diacid])AQ[Aib]AFIEYLLAGGPSSGAPPPSGSQ-OH [Example 88] | 6.44 | 8.46 | 9.75 | 6.04 | 8.13 | 7.61 | – | – | –
2 | H-Y[Aib]QGTFTSDFS[Orn][αMeL]LDKK([AEEA-γGlu-C18 diacid])AQ[Aib]AFIEYLLAGGPSSGAPPPSGS[AEEA]-NH2 [Example 89] | 6.34 | 8.48 | 9.78 | 6.04 | 7.94 | 7.71 | – | – | –
3 | H-Y[Aib]QGTFTSDFS[Orn][αMeL]LDKK([AEEA-γGlu-C18 diacid])AQ[Aib]AFIEYLLAGGPSSGEPPPEGS-NH2 [Example 152] | 6.31 | 8.39 | 9.59 | 5.96 | 8.16 | 7.63 | – | – | –
4 | H-Y[Aib]QGTFTSDFS[Orn][αMeL]LDKK([AEEA-γGlu-C18 diacid])AQ[Aib]AFIEYLLEGGESSGAPPPGGS-NH2 [Example 161] | 6.02 | 8.28 | 9.26 | 6.04 | 8.32 | 7.06 | – | – | –
5 | H-Y[Aib]QGTFTSDFS[Orn][αMeL]LDKK([AEEA-γGlu-C18 diacid])AQ[Aib]AFIEYLLEGGESSGAPPPSGS-NH2 [Example 145] | 5.83 | 8.37 | 9.27 | 6.16 | 8.50 | 6.97 | – | – | –
6 | H-Y[Aib]QGTFTSDFS[Orn][αMeL]LDKK([AEEA-γGlu-C18 diacid])AQ[Aib]AFIEYLLEGGPSSGAPPPEGT-NH2 [Example 160] | 6.32 | 8.27 | 9.45 | 6.32 | 8.36 | 7.35 | – | – | –
7 | H-Y[Aib]QGTFTSDFS[Orn][αMeL]LDKK([AEEA-γGlu-C18 diacid])AQ[Aib]AFIEYLLEGGPSSGAPPPGGE-NH2 [Example 63] | 6.46 | 8.32 | 9.59 | 6.15 | 8.39 | 7.39 | – | – | –
8 | H-Y[Aib]QGTFTSDFS[Orn][αMeL]LDKK([AEEA-γGlu-C18 diacid])AQ[Aib]AFIEYLLEGGPSSGAPPPGGQ-NH2 [Example 159] | 6.23 | 8.38 | 9.46 | 6.32 | 8.16 | 7.30 | – | – | –
9 | H-Y[Aib]QGTFTSDFS[Orn][αMeL]LDKK([AEEA-γGlu-C18 diacid])AQ[Aib]AFIEYLLEGGPSSGAPPPGGSE-NH2 [Example 65] | 6.34 | 8.38 | 9.13 | 6.09 | 8.19 | 7.52 | – | – | –
10 | H-Y[Aib]QGTFTSDFS[Orn][αMeL]LDKK([AEEA-γGlu-C18 diacid])AQ[Aib]AFIEYLLEGGPSSGAPPPGGSG-NH2 [Example 64] | 6.40 | 8.39 | 9.51 | 6.20 | 8.31 | 7.60 | – | – | –
11 | H-Y[Aib]QGTFTSDFS[Orn][αMeL]LDKK([AEEA-γGlu-C18 diacid])AQ[Aib]AFIEYLLEGGPSSGAPPPGG[4Pal]-NH2 [Example 261] | 6.42 | 8.51 | 9.54 | 6.28 | 8.26 | 7.42 | – | – | –
12 | H-Y[Aib]QGTFTSDFS[Orn][αMeL]LDKK([AEEA-γGlu-C18 diacid])AQ[Aib]AFIEYLLEGGPSSGAPP[Hyp]GGS-NH2 [Example 237] | 6.54 | 8.47 | 9.64 | 6.36 | 8.42 | 7.51 | – | – | –
13 | H-Y[Aib]QGTFTSDFS[Orn][αMeL]LDKK([AEEA-γGlu-C18 diacid])AQ[Aib]AFIEYLLEGGPSSGAP[Hyp]PGGS-NH2 [Example 236] | 6.58 | 8.48 | 9.51 | 6.51 | 8.65 | 7.61 | – | – | –
14 | H-Y[Aib]QGTFTSDFS[Orn][αMeL]LDKK([AEEA-γGlu-C18 diacid])AQ[Aib]AFIEYLLEGGPSSGEPPPSGS-NH2 [Example 131] | 6.01 | 8.26 | 9.38 | 6.01 | 8.58 | 7.04 | – | – | –
15 | H-Y[Aib]QGTFTSDFS[Orn][αMeL]LDKK([AEEA-γGlu-C18 diacid])AQ[Aib]AFIEYLLEGG[Hyp]SSGAPPPGGS-NH2 [Example 234] | 6.22 | 8.33 | 9.49 | 6.15 | 8.10 | 7.51 | – | – | –
16 | H-Y[Aib]QGTFTSDFS[Orn][αMeL]LDKK([AEEA-γGlu-C18 diacid])AQ[Aib]AFIEYLLE[Aib]GESSGAPPPSGS-NH2 [Example 240] | 6.40 | 8.44 | 9.67 | 6.28 | 8.69 | 7.98 | – | – | –
17 | H-Y[Aib]QGTFTSDFS[Orn][αMeL]LDKK([AEEA-γGlu-C18 diacid])AQ[Aib]AFIEYLLE[Aib]GHSSGAPPPSGE-NH2 [Example 247] | 6.54 | 8.55 | 10.10 | 6.35 | 8.75 | 7.89 | – | – | –
18 | H-Y[Aib]QGTFTSDFS[Orn][αMeL]LDKK([AEEA-γGlu-C18 diacid])AQ[Aib]AFIEYLLE[dA]GHSSGAPPPSGE-NH2 [Example 207] | 6.65 | 8.36 | 9.49 | 6.11 | 8.37 | 7.82 | – | – | –
19 | H-Y[Aib]QGTFTSDFS[Orn][αMeL]LDKK([AEEA-γGlu-C18 diacid])AQ[Aib]AFIE[4Pal]LLEGGPSSGAPPPGGS-NH2 [Example 496] | 5.83 | – | – | 5.82 | – | 7.22 | 8.01 | 9.41 | 8.08
20 | H-Y[Aib]QGTFTSDFS[Orn][αMeL]LDKK([AEEA-γGlu-C18 diacid])AQ[Aib]AFIE[αMeY]LIEGGPSSGAPPPSGS-NH2 [Example 839] | 7.22 | 9.33 | 9.66 | 5.95 | 8.30 | 7.66 | – | – | –
21 | H-Y[Aib]QGTFTSDFS[Orn][αMeL]LDKK([AEEA-γGlu-C18 diacid])AQ[Aib]QFIEYLLAGGPSSGAPPPEGS-NH2 [Example 96] | 6.08 | 8.41 | 9.34 | 5.67 | 7.85 | 7.31 | – | – | –
22 | H-Y[Aib]QGTFTSDFS[Orn][αMeL]LDKK([AEEA-γGlu-C18 diacid])AQ[αMe4Pal]AFIEYLIE[Aib]GPSSGAPPPSGS-NH2 [Example 811] | 6.61 | 8.83 | 9.85 | 6.76 | 9.14 | 7.59 | – | – | –
